We go through one compound from patent US12667584B2, “Adenosine analog and its use in regulating the circadian clock” (NATIONAL INSTITUTE OF BIOLOGICAL SCIENCES, BEIJING, priority 2017, dated 2026).

Data set [1] in a line: HPLC-MASS analysis of CSF after tail vein injection. It is filed as in vivo, rat. Particulars: 15 mg/kg tail vein. The method, then: HPLC-MASS analysis CSF: 8 W SD rats are bought from Beijing Vital River, housed in individually cage in a temperature- and humidity-controlled SPF facility, with ad libitum access to food and water. The animals were entrained under 12 h light/dark photoperiod for two weeks to synchronize the endogenous circadian clock of the mice to the ambient light-dark cycle, light intensity is about 50˜100 lux. […] Finally, each 450 μl supernatant was collected into a new 1.5 ml tube, dried with SpeedVac and analyzed with HPLC-MASS facility.
To test whether cordycepin function in vivo, we firstly tested luciferase signal level by live imaging of Per2:LUC mice after intraperitoneal injection of 15 mg/kg cordycepin or DMSO. […] Prior evaluation the jet-leg cure ability of cordycepin, we detected whether cordycepin and it's prodrug pro-CA03 can penetrate BBB. We injected cordycepin or pro-CA03 via tail vein and time course sampled CSF and analyzed cordycepin pro-CA03 level with HPLC-MASS method. […] Finally we evaluated the jet-leg cure ability of cordycepin, pro-CA03 and Pro-CA04 with mice behavioral experiment. […]

In the next data set the test system is PER2 locus. In words: ChIP-qPCR analysis for the PER2 locus. It is filed as cell-based. The method, then:
Human and mouse circadian oscillators are driven by interlocked transcriptional and translational feedback loop. Bmal1 and Clock are transcriptional factors and function as positive arm to active negative arm genes transcription, including Per and Cry. Per and Cry are transcriptional repressor and feedback repress Bmal1/Clock's transcription activity thereby inhibit its own transcription. […] We also confirmed this by ChIP-qPCR experiments. Cordycepin treatment 30 min immediately release Cry1/2 and Ruvbl2 binding at Per2 gene promoter.
(In qPCR the cycle at which signal appears reflects the starting amount.)

Consider `Nc1ncnc2c1ncn2[C@@H]1O[C@H](CO)C[C@H]1O` [Cordycepin, 3′-deoxy-adenosine], for which, in data set [1], the “time of peak concentration in CSF after injection” value turned out to be 1 min. In the data set on PER2 locus, the “binding of BMAL1 at PER2 locus” value is “remained unchanged” and the “binding of CRY2/RUVBL2 at PER2 locus” value is “released”.
